{
  "source": "patent US8594947B2",
  "about": "“Crystal structure of an angiotensin-converting enzyme (ACE) and uses thereof” (University of Bath, priority 2002, dated 2013)",
  "key": {"tACE [1]": {"molecular_target": "T1, tACE (Homo sapiens, UniProt P12821)", "T1 construct": "made in house; host or cells: CHO-K1 cells, stably transfected; soluble enzyme purified from the medium", "assay": "Kinetic constants for tACE hydrolysis of hippuryl-L-histidyl-L-leucine (Hip-His-Leu)", "format": "biochemical", "settings": "cells expressing tACEΔ36NJ treated with the glucosidase I inhibitor", "description": "(§1) Soluble, recombinant tACE (wild-type […], ACEΔ36NJ (SEQ ID NO: 2) and ACE glycosylation mutants), is purified from conditioned media by affinity chromatography on a Sepharose-28-lisinopril affinity resin. The protein is quantitated by amino acid analysis and assayed for activity using the substrate hippuryl-L-histidyl-L-leucine , as described (Ehlers, MRE, Chen, Y—N, Riordan, JF (1991) Proc Natl Acad Sci USA 88, 1009-1013).\n(§2) Assays are performed in 100 mM potassium phosphate pH 8.3 containing 300 mM NaCl. Initial velocities are calculated over a range of Hip-His-Leu concentrations (0.2-5.0 mM) under initial rate conditions and fit to the Michaelis-Menten equation. Km and Vmax values are determined by non-linear regression analysis."}, "[2]": {"settings": "cited from earlier work"}, "tACE glycosylation": {"system": "tACE glycosylation", "assay": "Inhibition of tACE glycosylation in presence of tunicamycin (cellular ACE activity, Western blot)", "format": "cell-based", "settings": "CHO cells expressing tACE-wt, 5 μg/ml tunicamycin", "description": "CHO cells expressing tACE-wt are grown to confluence in 6-well plates and induced overnight in 2% medium in the absence and presence of 5 μg/ml tunicamycin. Fresh medium is added and cells are grown in the absence and presence of 5 μg/ml tunicamycin. At 6, 8, 12, 16, 20 and 24 hours detergent-solubilised cell samples are collected. After separating the proteins on 10% SDS-PAGE they are immunodetected by Western blotting.\ntACE-wt (SEQ ID NO: 1), tACEΔ36, tACEΔ36-g1, -g2, -g3, -g12, -g13, -g23, -g123 and -g1234 are immunodetected by Western blotting of cell lysates and harvested medium from transfected CHO cells. Proteins are separated on 10% SDS-PAGE and transferred to nitrocellulose membrane (Hybond-C, Amersham). The membrane is probed with a polyclonal rabbit anti-human tACE antibody. The membrane is developed using the ECL chemiluminescence kit (Amersham) and visualised on autoradiographic film, as per instructions."}, "tACE [3]": {"system": "tACE", "assay": "Kinetic constants for tACE hydrolysis of hippuryl-L-histidyl-L-leucine (Hip-His-Leu)", "format": "biochemical, human", "settings": "hydrolysis of Hip-His-Leu", "description": "as §1, §2"}},
  "note": "Read-outs that look alike come from different tables or passages of the source.",
  "data": [
    {"molecule": "CCCCN1C[C@H](O)[C@@H](O)[C@H](O)[C@H]1CO", "note": "[NB-DNJ, N-butyldeoxynojirimycin]", "values": [
      {"measurement": "Effect of treating the expressing cells on kinetic properties of the expressed enzymes", "setting": "tACE [1]", "result": "do not alter the kinetic properties"}
    ]},
    {"molecule": "CCOC(=O)[C@H](CCc1ccccc1)N[C@@H](C)C(=O)N1CCC[C@H]1C(=O)O", "note": "[enalapril]", "values": [
      {"measurement": "Risk of hospitalization for heart failure", "setting": "[2]; similar black patients", "result": "no such effect"},
      {"measurement": "Risk of hospitalization for heart failure", "setting": "[2]; white patients with left ventricular function", "result": "significant reduction"}
    ]},
    {"molecule": "tunicamycin", "values": [
      {"measurement": "Formation of mature, glycosylated tACE-wt (Western blot)", "setting": "tACE glycosylation", "result": "partially inhibits"},
      {"measurement": "Cellular tACE-wt activity in treated versus untreated cells", "setting": "tACE glycosylation; data not shown", "result": "approximately three-fold lower"}
    ]},
    {"molecule": "tACE-wt: wild-type human testis ACE (SEQ ID NO: 1) retaining its 36-residue N-terminus, transmembrane region and juxtamembrane stalk, expressed in CHO cells (protein, listed as Homo sapiens) SQQVTVTHGTSSQATTSSQTTTHQATAHQTSAQSPNLVTDEAEASKFVEEYDRTSQVVWNEYAEANWNYNTNITTETSKILLQKNMQIANHTLKYGTQARKFDVNQLQNTTIKRIIKKVQDLERAALPAQELEEYNKILLDMETTYSVATVCHPNGSCLQLEPDLTNVMATSRKYEDLLWAWEGWRDKAGRAILQFYPKYVELINQAARLNGYVDAGDSWRSMYETPSLEQDLERLFQELQPLYLNLHAYVRRALHRHYGAQHINLEGPIPAHLLGNMWAQTWSNIYDLVVPFPSAPSMDTTEAMLKQGWTPRRMFKEADDFFTSLGLLPVPPEFWNKSMLEKPTDGREVVCHASAWDFYNGKDFRIKQCTTVNLEDLVVAHHEMGHIQYFMQYKDLPVALREGANPGFHEAIGDVLALSVSTPKHLHSLNLLSSEGGSDEHDINFLMKMALDKIAFIPFSYLVDQWRWRVFDGSITKENYNQEWWSLRLKYQGLCPPVPRTQGDFDPGAKFHIPSSVPYIRYFVSFIIQFQFHEALCQAAGHTGPLHKCDIYQSKEAGQRLATAMKLGFSRPWPEAMQLITGQPNMSASAMLSYFKPLLDWLRTENELHGEKLGWPQYNWTPNSARSEGPLPDSGRVSFLGLDLDAQQARVGQWLLLFLGIALLVATLGLSQRLFSIRHRSLHRHSHGPQFGSEVELRHS", "values": [
      {"measurement": "Km", "setting": "tACE [3]; 100 mM potassium phosphate pH 8.3, 300 mM NaCl", "result": 2700, "unit": "µM"},
      {"measurement": "kcat", "setting": "tACE [3]; calculated molecular mass of 100 kDa", "result": 193, "unit": "s⁻¹"}
    ]}
  ]
}
